{"source": "patent US6150393A", "about": "(priority 1999, dated 2000)", "key": {"[1]": {"experiment": "DOI inhibition study in rats, oral administration of test compound (oral availability)", "format": "in vivo, rat", "settings": "in vivo; rat; 50 mg/kg oral vs 10 mg/kg i.p., inferred from DOI test", "experimental": "(§1) FIG. 6 provides a graphic summary of the effects of oral administration of 116082 and 116081 in a DOI inhibition study in rats. Values represent the mean±SEMs (n=6/group). #P<0.05 vs. vehicle/vehicle, *P<0.05 vs. vehicle/DOI, Student t-test.\n(§2) Based upon the in vivo data developed, oral bioavailability of compounds […] was considered. The compounds were administered by oral gavage at a dose of 50 mg/kg, 30 min prior to DOI in rats (see Example 11A, supra). Animals were placed in the locomotor activity cages 10 min after DOI administration and activity was measured for 10 min. Results, presented in FIG. 6, provide total activity counts over the 10 min of exposure to the locomotor activity apparatus."}, "5HT2 receptors [2]": {"tested_on": "5HT2 receptors", "experiment": "DOI inhibition study in rats, oral administration of test compound (oral availability)", "format": "in vivo, rat", "experimental": "as §1, §2"}, "[3]": {"format": "in vivo, rat (male Sprague-Dawley)", "experimental": "FIG. 7 provides a graphic summary of the reversal of MK-801-induced hyperactivity using 116081 (7A) and clozapine (7B). […] 116081 produced a significant reversal of the effect of MK-801 at a dose of 25 μmol/kg (10 mg/kg). Results are presented as total activity counts over the 120 min of exposure to the locomotor activity apparatus after administration of MK-801. Data (mean±SEM) were analyzed by ANOVA followed by Dunnett's test (n=6-8/group).\nBecause part of the symptomatology of schizophrenia may be related to altered glutamate transmission at the NMDA receptor, the reversal of MK-801-induced hyperlocomotor activity in rodents has been used routinely as an animal model for detecting potential antipsychotic activity (O'Neill et al., Pharmacology Biochem. Behav., 63: 237-243, 1999). Thus, this test was used to determine potential antipsychotic properties of 116081 in vivo.\nMotor activity was assessed using automated locomotor activity cages as described above (Example 11(A), supra.). Male Sprague-Dawley rats (250-350 g body weight) were administered test compounds (i.p.) and placed in the locomotor activity cages for 30 min of habituation. Following habituation,animals were administered MK-801 (0.5 μmol/kg=0.17 mg/kg, s.c.) and then immediately placed back into the locomotor activity cages, and activity was measured for 120 min. A reversal of MK-801-induced motor activity (as shown by a significant […] of ambulation) in rats is considered to be predictive of the ability of the test compound to reverse psychotic symptoms."}, "[4]": {"tested_on": "human 5HT2A receptor compared with human 5HT2C receptor", "experiment": "Selectivity for 5HT2A over 5HT2C receptor (as measured by IC50 values)", "format": "binding"}, "5HT2 receptors [5]": {"tested_on": "5HT2 receptors", "experiment": "DOI locomotor activity test in rats (DOI inhibition study), intraperitoneal test compound", "format": "in vivo, rat (male Sprague-Dawley)", "settings": "i.p. 30 min before DOI (0.3 mg/kg s.c.)", "experimental": "(§3) FIG. 3 provides a graphic summary of dose-response results from in vivo analysis of compound 116082 in a 1-(2,5-dimethoxy-4-iodophenyl)-2-aminopropane (\"DOI\") inhibition study (fine movement; ambulation; and animal rearing outcome measures). 116082 was administered 30 min prior to DOI. Animals were placed in locomotor activity cages 10 min after DOI administration and activity was measured for 10 min. Results are presented as total activity counts over the 10 min of exposure to the locomotor activity apparatus.\nas §3, with “FIG. 4” for “FIG. 3”, “compound 116081” for “compound 116082”, “a DOI” for “a 1-(2,5-dimethoxy-4-iodophenyl)-2-aminopropane (\"DOI\")”, “measures). 116081” for “measures). 116082”\nAssessment of 5-HT2 receptor antagonism in vivo was made by using the DOI locomotor activity test in rats as described by Krebs-Thomson (Psychopharmacology, 140:69-74, 1998).\nMotor function was assessed by using automated locomotor activity cages. The rats were placed in a standard rodent cage surrounded by photocell beams, which allow for automated recording of motor activity. […]"}}, "data": [{"smiles": "Cn1cc(Br)c(-c2cccc(NC(=O)Nc3ccc(Cl)cc3)c2)n1", "note": "[Compound 116081, N-[3-(4-bromo-1-methylpyrazol-3-yl)phenyl][(4-chlorophenyl)amino]carboxamide]", "values": [{"measurement": "bioavailability", "setting": "[1]", "value": "≥ 20", "unit": "%"}, {"measurement": "oral efficacy compared with intraperitoneal administration", "setting": "5HT2 receptors [2]; 50 mg/kg oral vs 10 mg/kg i.p.", "value": "as efficacious as a 10 mg/kg dose of the same compounds administered intraperitoneally"}, {"measurement": "reversal of DOI-induced motor dysfunction, oral", "setting": "5HT2 receptors [2]; oral gavage 50 mg/kg, 30 min prior to DOI", "value": "reversed DOI-induced motor dysfunction in rats"}, {"measurement": "oral activity", "setting": "5HT2 receptors [2]; rat, DOI test, 50 mg/kg oral", "value": "orally active"}, {"measurement": "efficacy in reversing motor activity induced by MK-801, compared with clozapine", "setting": "[3]; FIGS. 7A and 7B", "value": "equiefficacious to the atypical antipsychotic clozapine"}, {"measurement": "attenuation of MK-801-induced hyperactivity (ambulations)", "setting": "[3]; i.p., total activity counts over 120 min after MK-801", "value": "dose-dependently attenuated MK801-induced hyperactivity"}, {"measurement": "selectivity preference for the 5HT2A receptor compared with the 5HT2C receptor", "setting": "[4]", "value": 100, "unit": "fold"}, {"measurement": "reversal of DOI-induced motor dysfunction", "setting": "5HT2 receptors [5]", "value": "beneficially reverses DOI-induced motor dysfunction"}]}]}
